Data from patent publication US8133849B2, “Herbicidal compounds” (Syngenta Limited, priority 2007, dated 2012).

Legend:
Type in all cases: in vivo
[1] = tested on: Stellaria media; experiment: Example B1 herbicidal action, post-emergence, seed trays in climatic chamber, damage score 0-10; conditions: 1000 g/ha, evaluated after 9 days, 10=total damage to plant, 0=no damage to plant
Method: (§1) Seeds of a variety of test species were sown in sterilized standard soil in seed trays each having 96 cells. After cultivation for 8 to 9 days cultivation (post-emergence) under controlled conditions in a climatic chamber (cultivation at 23/17° C., day/night; 13 hours light; 50-60% humidity), the plants were treated with an aqueous spray solution of 1000 mg/l of the active ingredient dissolved in 10% DMSO (dimethyl sulfoxide, CAS RN 67-68-5) as a solvent, equivalent to 1000 g/ha. The plants were grown in the climatic chamber after application at (24/19° C., day/night; 13 hours light; 50-60% humidity) and watered twice daily. After 9 days until the test was evaluated (10=total damage to plant, 0=no damage to plant)

[2] = tested on: Nasturtium officinale; experiment: as above; conditions: 1000 g/ha, evaluated after 9 days, 10=total damage to plant, 0=no damage to plant
Method: as §1

[3] = tested on: Solanum nigrum; experiment: as above; conditions: 1000 g/ha, evaluated after 9 days, 10=total damage to plant, 0=no damage to plant
Method: as §1

[4] = tested on: Amaranthus retroflexus; experiment: as above; conditions: 1000 g/ha, evaluated after 9 days, 10=total damage to plant, 0=no damage to plant
Method: as §1

[5] = tested on: test plants; experiment: Example B2 herbicidal action, post-emergence, pots in glasshouse, damage score 0-10 (10=total damage to plant; 0=no damage to plant); conditions: Example B2 protocol, after 13 days, result in words
Method: Seeds of a variety of test species were sown in standard soil in pots. After 8 days cultivation (post-emergence) under controlled conditions in a glasshouse (at 24/16° C., day/night; 14 hours light; 65% humidity), the plants were sprayed with an aqueous spray solution derived from the formulation of the technical active ingredient in acetone/water (50:50) solution containing 0.5% Tween 20 (polyoxyethelyene sorbitan monolaurate, CAS RN 9005-64-5). The test plants were then grown in a glasshouse under controlled conditions in a glasshouse (at 24/16° C., day/night; 14 hours light; 65% humidity) and watered twice daily. After 13 days, the test was evaluated (10=total damage to plant; 0=no damage to plant).

[6] = tested on: test plants; experiment: Example B1 herbicidal action, post-emergence, all test species together; conditions: Example B1 protocol, 1000 g/ha, after 9 days, result in words
Method: as §1

[7] = tested on: Chenopodium album; experiment: Example B3 herbicidal action, post-emergence, small pots in glasshouse, damage score 0-10; conditions: 1000 g/ha, evaluated after 13 days, 10=total damage to plant, 0=no damage to plant
Method: (§2) Seeds of a variety of test species were sown in sterilized compost in small pots. After cultivation for seven days (post-emergence) in controlled conditions in the glasshouse (at 24/16° C., day/night; 14 hours light; 65% humidity) the plants were sprayed with 1 mg of the active ingredient, formulated in 2.5 ml acetone/water (50:50) solution, which is equivalent to 1000 g/ha. Once the foliage was dry, the pots were kept in the glasshouse (at 24/16° C., day/night; 14 hours light; 65% humidity), and were watered twice daily. After 13 days the test was evaluated (10=total damage to plant, 0=no damage to plant).

[8] = tested on: Alopecurus myosuroides; experiment: as above; conditions: 1000 g/ha, evaluated after 13 days, 10=total damage to plant, 0=no damage to plant
Method: as §2

| Structure (SMILES) | damage to plant, STEME [1] | damage to plant, NAAOF [2] | damage to plant, SOLNI [3] | damage to plant, AMARE [4] | damage to the test plants [5] | damage to the test plants [6] | damage to plant, CHEAL [7] | damage to plant, ALOMY [8] |
| --- | --- | --- | --- | --- | --- | --- | --- | --- |
| CC(C)(C)C(=O)OC1=C(c2c(F)ccc(F)c2Cl)S(=O)(=O)Nc2nccnc21 [Compound B3, 2,2-dimethyl-propionic acid-3-(2-chloro-3,6-difluoro-phenyl)-2,2-dioxo-1,2-dihydro-2-λ-6-thia-1,5,8-triaza-naphthalen-4-yl ester] | 0 | 0 | 2 | 0 | – | – | – | – |
| CCOC(=O)c1ccc(C(F)(F)F)nc1C1=C(O)c2nccnc2N(CCC(F)F)S1(=O)=O [Compound D58, 2-[1-(3,3-difluoro-propyl)-4-hydroxy-2,2-dioxo-1,2-dihydro-2-λ-6-thia-1,5,8-triaza-naphthalen-3-yl]-6-trifluoromethyl-nicotinic acid ethyl ester] | – | – | – | – | little or no damage | – | – | – |
| CN1c2nccnc2C(OC(=O)C(C)(C)C)=C(c2ccc(Cl)cc2Cl)S1(=O)=O [Compound C2] | 6 | 4 | 0 | 3 | – | – | – | – |
| CN1c2nccnc2C(OC(=O)C(C)(C)C)=C(c2ccc(Cl)c(Cl)c2)S1(=O)=O [Compound C8] | 0 | 0 | 7 | 2 | – | – | – | – |
| CN1c2nccnc2C(O)=C(c2c(F)ccc(F)c2Cl)S1(=O)=O [Compound D2] | 7 | 7 | 7 | 7 | – | – | – | – |
| CC(C)(C)C(=O)OC1=C(c2ccccc2[N+](=O)[O-])S(=O)(=O)N(CC(F)F)c2nccnc21 [Compound C66] | – | – | – | – | little or no damage | – | – | – |
| CCN1c2nccnc2C(OC(=O)C(C)(C)C)=C(c2ccc(Cl)c(Cl)c2)S1(=O)=O [Compound C10] | – | – | – | – | little or no damage | – | – | – |
| COC1=C(c2ccc(Cl)cc2Cl)S(=O)(=O)N(C)c2nccnc21 [Compound C3, 3-(2,4-dichloro-phenyl)-4-methoxy-1-methyl-1H-2-thia-1,5,8-triazanaphthalen-2,2-dioxide] | 2 | 2 | 3 | 1 | – | – | – | – |
| CC(C)(C)C(=O)OC1=C(c2ccc(Cl)c(Cl)c2)S(=O)(=O)Nc2nccnc21 [Compound B4] | – | – | – | – | – | little or no damage | – | – |
| COC1=C(c2cc3ccccc3nc2Cl)S(=O)(=O)N(C)c2nccnc21 [Compound C40] | 1 | 0 | 0 | 0 | – | – | – | – |
| CC(C)(C)C(=O)OC1=C(c2ccc(Cl)cc2Cl)S(=O)(=O)N(CC(F)F)c2nccnc21 [Compound C12, 2,2-dimethyl-propionic acid-3-(2,4-dichloro-phenyl)-1-(2,2-difluoroethyl)-2,2-dioxo-1,2-dihydro-2-λ-6-thia-1,5,8-triaza-naphthalen-4-yl ester] | – | – | – | – | – | – | 9 | 6 |
| CC(C)C(=O)OC1=C(c2ccc(Cl)cc2Cl)S(=O)(=O)Nc2nccnc21 [Compound B2] | – | – | – | – | – | little or no damage | – | – |
| CN1c2nccnc2C(OC(=O)C(C)(C)C)=C(c2c(F)ccc(F)c2Cl)S1(=O)=O [Compound C4] | 8 | 6 | 5 | 7 | – | – | – | – |
| CCN1c2nccnc2C(OC(=O)C(C)C)=C(c2ccc(Cl)cc2Cl)S1(=O)=O [Compound C6] | 8 | 8 | 7 | 0 | – | – | – | – |
| CN1c2nccnc2C(O)=C(c2ccc(Cl)cc2Cl)S1(=O)=O [Compound D1] | 8 | 7 | 0 | 0 | – | – | – | – |
| C#CCN1c2nccnc2C(O)=C(c2ccccc2[N+](=O)[O-])S1(=O)=O [Compound D40, 3-(2-nitro-phenyl)-2,2-dioxo-1-prop-2-ynyl-1,2-dihydro-2-λ-6-thia-1,5,8-triaza-naphthalen-4-ol] | – | – | – | – | little or no damage | – | – | – |
| CCN1c2nccnc2C(OC(=O)C(C)(C)C)=C(c2cccc(C(F)(F)F)c2)S1(=O)=O [Compound C14] | – | – | – | – | little or no damage | – | – | – |
| CC(C)C(=O)OC1=C(c2c(F)ccc(F)c2Cl)S(=O)(=O)N(C)c2nccnc21 [Compound C9] | 6 | 6 | 4 | 7 | – | – | – | – |
| CN1c2nccnc2C(OC(=O)C(C)(C)C)=C(c2cc3ccccc3nc2Cl)S1(=O)=O [Compound C41] | 4 | 8 | 0 | 0 | – | – | – | – |
| CCN1c2nccnc2C(OC(=O)C(C)(C)C)=C(c2c(F)ccc(F)c2Cl)S1(=O)=O [Compound C7] | 8 | 8 | 7 | 3 | – | – | – | – |
| CC(C)(C)C(=O)OC1=C(c2ccc(Cl)cc2Cl)S(=O)(=O)Nc2nccnc21 [Compound B1] | 0 | 0 | 2 | 0 | – | – | – | – |
| CCN1c2nccnc2C(OC(=O)C(C)(C)C)=C(c2ccc(Cl)cc2Cl)S1(=O)=O [Compound C5] | 7 | 8 | 1 | 5 | – | – | – | – |
